Experimental data reported in BindingDB's records for doi:10.1021/jm000956k (Glaxowellcome, 2001).

Columns and labels:
[1] = biological target: 5-hydroxytryptamine receptor 2A (Oryctolagus cuniculus); assay: Binding affinity against rabbit aorta 5-HT2A receptor
[2] = biological target: 5-hydroxytryptamine receptor 1D (Bos taurus); assay: Binding affinity against calf caudate 5-hydroxytryptamine 1D receptor
[3] = biological target: 5-hydroxytryptamine receptor 2C (Cavia porcellus); assay: Binding affinity against guinea pig cortex 5-HT2C receptor in the presence of [3H]mesulergine

CN(C)[C@H]1C[C@H](c2c[nH]c3ccc(CC4COC(=O)N4)cc32)C1 (stereo partly drawn)
IC50 [1]: > 10 µM | IC50 [2]: 0.089 µM | IC50 [3]: > 10 µM
